13 compounds from patent US9822147B2, “Methods of treating ophthalmic diseases using NPR-B agonists” (priority 2009, dated 2017) can be followed below.

pEC50: −log10 of the molar value. Numbered stars: 1 amine (or outer) side, 2 acyl side, 3 side chain; on linkers, the order of the positions; unused ones are H or OH. Square brackets hold non-standard residues; d marks the D form. Peptide text beside a SMILES is read from it. * marks the point of attachment. Phe(4-Cl) = N[C@@H](Cc1ccc(Cl)cc1)C(=O)O; Pro(4R-NH2) = N[C@H]1CN[C@H](C(=O)O)C1; dOrn(Me2) = CN(C)CCC[C@@H](N)C(=O)O; X2 = O=C([C@H]1CCCN([*:1])C1)[*:2]; Hyp = O=C(O)[C@@H]1C[C@@H](O)CN1; Aoc(2) = CCCCCC[C@H](N)C(=O)O; NHcycloheptyl = C1CCCC(N*)CC1; NMeL = CN[C@@H](CC(C)C)C(=O)O; Ac6c = NC1(C(=O)O)CCCCC1; Octanoyl = CCCCCCCC(=O)*; Api = NC1(C(=O)O)CCNCC1; AEEA = NCCOCCOCC(=O)O

The assay concerns the target T1, NPR-B (Homo sapiens, UniProt P20594).
T1 construct: a functional assay using endogenously NPR-B expressing GTM-3 cells; endogenous in cells; host or cells: GTM-3 (human glaucoma trabecular meshwork cells)
T1 sequence (P20594 23-1047): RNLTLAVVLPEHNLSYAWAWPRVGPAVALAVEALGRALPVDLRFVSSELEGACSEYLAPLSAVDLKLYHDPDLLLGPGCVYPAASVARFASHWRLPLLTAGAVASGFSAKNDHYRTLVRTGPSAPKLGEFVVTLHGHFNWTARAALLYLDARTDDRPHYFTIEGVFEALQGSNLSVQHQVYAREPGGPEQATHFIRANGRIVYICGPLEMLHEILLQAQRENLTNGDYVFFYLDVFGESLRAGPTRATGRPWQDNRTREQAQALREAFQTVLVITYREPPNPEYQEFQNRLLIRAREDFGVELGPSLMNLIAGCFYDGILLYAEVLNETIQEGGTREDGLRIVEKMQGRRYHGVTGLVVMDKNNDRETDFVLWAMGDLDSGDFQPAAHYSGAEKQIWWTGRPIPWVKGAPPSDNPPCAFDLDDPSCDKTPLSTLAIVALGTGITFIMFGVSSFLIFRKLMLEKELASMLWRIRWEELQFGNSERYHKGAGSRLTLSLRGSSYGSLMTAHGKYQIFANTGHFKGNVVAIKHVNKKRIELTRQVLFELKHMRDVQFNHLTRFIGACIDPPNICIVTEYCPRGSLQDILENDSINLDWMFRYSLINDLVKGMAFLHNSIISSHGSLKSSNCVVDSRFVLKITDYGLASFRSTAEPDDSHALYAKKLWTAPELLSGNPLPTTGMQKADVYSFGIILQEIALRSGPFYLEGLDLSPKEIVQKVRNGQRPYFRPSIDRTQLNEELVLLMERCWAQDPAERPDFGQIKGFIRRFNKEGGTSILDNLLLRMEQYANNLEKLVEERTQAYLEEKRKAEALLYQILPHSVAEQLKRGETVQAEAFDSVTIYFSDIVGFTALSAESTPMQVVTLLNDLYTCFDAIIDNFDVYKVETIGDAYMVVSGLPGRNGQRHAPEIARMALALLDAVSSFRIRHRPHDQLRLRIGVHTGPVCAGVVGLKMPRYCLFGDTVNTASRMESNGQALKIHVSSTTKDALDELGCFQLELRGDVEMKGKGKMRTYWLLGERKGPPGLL
Description: NPR-B induced production of cyclic GMP in human glaucoma trabecular meshwork cells (GTM-3). Format: cell-based. The conditions noted are these: group by EC50 and Emax (CNP = 100%); Table 4; read-out: Activity (group), NPR-B activation assayed with GTM-3 cells.
Consider `CCCCCCCC(=O)N[C@H](C)C(=O)N[C@@H](Cc1ccccc1)C(=O)NC1(C(=O)N[C@@H](CC(C)C)C(=O)N2C[C@H](N)C[C@H]2C(=O)N(C)[C@@H](CC(C)C)C(=O)N[C@@H](CC(=O)O)C(=O)N[C@@H](CCCNC(=N)N)C(=O)N[C@H](C(N)=O)[C@@H](C)CC)CCCCC1` [JAL-1454, Occ-ala-Phe-Egz-Leu-Tap-Nml-Asp-Arg-Ile-NH2] (Octanoyl-[dA]F[Ac6c]L[Pro(4R-NH2)][NMeL]DRI-NH2), for which the pEC50 is over 6.00. To `CCCCCCCCN1CCC[C@H](C(=O)N[C@@H](Cc2ccccc2)C(=O)N[C@H](CCCNC(=N)N)C(=O)N[C@@H](CC(C)C)C(=O)N2C[C@H](O)C[C@H]2C(=O)N(C)[C@@H](CC(C)C)C(=O)N[C@@H](CC(=O)O)C(=O)N[C@@H](CCCNC(=N)N)C(=O)N[C@H](C(N)=O)[C@@H](C)CC)C1` [JAL-1297, Oct-Sni-Phe-arg-Leu-Hyp-Nml-Asp-Arg-Ile-NH2] (HELM PEPTIDE1{[CCCCCCCCN1CCC[C@H](C(=O)[*:2])C1].F.[dR].L.[Hyp].[meL].D.R.I.[am]}$$$$V2.0) belongs over 6.00; to `CCCCCCCC(=O)N[C@H](C)C(=O)N[C@@H](Cc1ccccc1)C(=O)NC(C(=O)N[C@@H](CC(C)C)C(=O)N1C[C@H](O)C[C@H]1C(=O)N(C)[C@@H](CC(C)C)C(=O)N[C@@H](CC(=O)O)C(=O)N[C@@H](CCCNC(=N)N)C(=O)N[C@H](C(N)=O)[C@@H](C)CC)C1CCCNC1` (stereo partly drawn) [JAL-1336, Occ-ala-Phe-Fhy-Leu-Hyp-Nml-Asp-Arg-Ile-NH2] (HELM PEPTIDE1{[CCCCCCCC(=O)[*:2]].[dA].F.[O=C(C(N[*:1])C1CCCNC1)[*:2]].L.[Hyp].[meL].D.R.I.[am]}$$$$V2.0), over 6.00; to `CCCCCCCC(=O)N[C@@]1(C)CCN([C@@H](Cc2ccccc2)C(=O)N[C@H](CC(C)C)C(=O)N[C@@H](CC(C)C)C(=O)N2C[C@H](O)C[C@H]2C(=O)N(C)[C@@H](CC(C)C)C(=O)N[C@@H](CC(=O)O)C(=O)N[C@@H](CCCNC(=N)N)C(=O)N[C@H](C(N)=O)[C@@H](C)CC)C1=O` [JAL-1774, (AR-314-102)-leu-Leu-Hyp-Nml-Asp-Arg-Ile-NH2], over 6.00. With `CCCCCCCC(=O)N1CCC[C@H](C(=O)N[C@@H](Cc2ccccc2)C(=O)N[C@H](CCCN(C)C)C(=O)N[C@@H](CC(C)C)C(=O)N2C[C@H](N)C[C@H]2C(=O)N(C)[C@@H](CC(C)C)C(=O)N[C@@H](CC(=O)O)C(=O)N[C@@H](CCCNC(=N)N)C(=O)N[C@H](C(N)=O)[C@@H](C)CC)C1` [JAL-1936, Occ-Sni-Phe-orn(Me2)-Leu-Tap-Nml-Asp-Arg-Ile-NH2] (Octanoyl-[X2]F[dOrn(Me2)]L[Pro(4R-NH2)][NMeL]DRI-NH2) the figure was over 6.00; with `CCCCCCCC(=O)N[C@H](C)C(=O)N[C@@H](Cc1ccccc1)C(=O)N[C@H](CC(C)C)C(=O)N[C@@H](CC(C)C)C(=O)N1C[C@H](O)C[C@H]1C(=O)N(C)[C@@H](CC(C)C)C(=O)N[C@@H](CC(=O)O)C(=O)N[C@@H](CCCNC(=N)N)C(=O)NC1(C(N)=O)CCCCC1` [JAL-1358, Occ-ala-Phe-leu-Leu-Hyp-Nml-Asp-Arg-Egz-NH2] (HELM PEPTIDE1{[CCCCCCCC(=O)[*:2]].[dA].F.[dL].L.[Hyp].[meL].D.R.[O=C(C1(N[*:1])CCCCC1)[*:2]].[am]}$$$$V2.0), over 6.00; with `CC[C@H](C)[C@H](NC(=O)[C@H](CCCNC(=N)N)NC(=O)[C@H](CC(=O)O)NC(=O)[C@H](CC(C)C)N(C)C(=O)[C@@H]1C[C@@H](O)CN1C(=O)[C@H](CC(C)C)NC(=O)[C@@H](CC(C)C)NC(=O)[C@H](Cc1ccccc1)NC(=O)[C@H]1CCCN(C(=O)CCCCc2ccccc2)C1)C(N)=O` [JAL-1606, 1320-Sni-Phe-leu-Leu-Hyp-Nml-Asp-Arg-Ile-NH2] (HELM PEPTIDE1{[O=C(CCCCc1ccccc1)[*:2]].[O=C([C@H]1CCCN([*:1])C1)[*:2]].F.[dL].L.[Hyp].[meL].D.R.I.[am]}$$$$V2.0), over 6.00. To `CCCCCCCC(=O)N1CCC[C@H](C(=O)N[C@@H](Cc2ccccc2)C(=O)NC2(C(=O)N[C@@H](CC(C)C)C(=O)N3C[C@H](N)C[C@H]3C(=O)N(C)[C@@H](CC(C)C)C(=O)N[C@@H](CC(=O)O)C(=O)N3CCC[C@H]3C(=O)NC3CCCCCC3)CCNCC2)C1` [JAL-1602, Occ-Sni-Phe-Apc-Leu-Tap-Nml-Asp-Pro-Che] (Octanoyl-[X2]F[Api]L[Pro(4R-NH2)][NMeL]DP-NHcycloheptyl) belongs over 6.00; to `CCCCCCCC(=O)N1CCC[C@H](C(=O)N[C@@H](Cc2ccc(Cl)cc2)C(=O)N[C@H](CC(C)C)C(=O)N[C@@H](CC(C)C)C(=O)N2C[C@H](O)C[C@H]2C(=O)N(C)[C@@H](CC(C)C)C(=O)N[C@@H](CC(=O)O)C(=O)N[C@@H](CCCNC(=N)N)C(=O)N[C@H](C(N)=O)[C@@H](C)CC)C1` [JAL-1493, Occ-Sni-Pcf-leu-Leu-Hyp-Nml-Asp-Arg-Ile-NH2] (Octanoyl-[X2][Phe(4-Cl)][dL]L[Hyp][NMeL]DRI-NH2), over 6.00. On to `CCCCCCCC(=O)N[C@H](C)C(=O)N(C)[C@@H](Cc1ccccc1)C(=O)N[C@H](CC(C)C)C(=O)N[C@@H](CC(C)C)C(=O)N1C[C@H](O)C[C@H]1C(=O)N[C@@H](CC(C)C)C(=O)N[C@@H](CC(=O)O)C(=O)N[C@@H](CCCNC(=N)N)C(=O)N[C@H](C(N)=O)[C@@H](C)CC` [JAL-1052, Occ-ala-Nmf-leu-Leu-Hyp-Leu-Asp-Arg-Ile-NH2] (HELM PEPTIDE1{[CCCCCCCC(=O)[*:2]].[dA].[meF].[dL].L.[Hyp].L.D.R.I.[am]}$$$$V2.0), for which the pEC50 was over 6.00. Turning to `CCCCCCCC(=O)N1CCC[C@@H]1C(=O)N[C@@H](Cc1ccccc1)C(=O)N[C@H](CC(C)C)C(=O)N[C@@H](CC(C)C)C(=O)N1C[C@H](O)C[C@H]1C(=O)N[C@@H](CC(C)C)C(=O)N[C@@H](CC(=O)O)C(=O)N[C@@H](CCCNC(=N)N)C(=O)N[C@H](C(N)=O)[C@@H](C)CC` [JAL-1053, Occ-pro-Phe-leu-Leu-Hyp-Leu-Asp-Arg-Ile-NH2] (HELM PEPTIDE1{[CCCCCCCC(=O)[*:2]].[dP].F.[dL].L.[Hyp].L.D.R.I.[am]}$$$$V2.0), the pEC50 is over 6.00. On to `CCCCCCCC(=O)N1CCC[C@H](C(=O)N[C@@H](Cc2ccccc2)C(=O)N[C@H](CC(C)C)C(=O)N[C@@H](CCCC)C(=O)N2C[C@H](O)C[C@H]2C(=O)N(C)[C@@H](CC(C)C)C(=O)N[C@@H](CC(=O)O)C(=O)N[C@@H](CCCNC(=N)N)C(=O)N[C@H](C(N)=O)[C@@H](C)CC)C1` [JAL-1624, Occ-Sni-Phe-leu-Nle-Hyp-Nml-Asp-Arg-Ile-NH2] (HELM PEPTIDE1{[CCCCCCCC(=O)[*:2]].[O=C([C@H]1CCCN([*:1])C1)[*:2]].F.[dL].[Nle].[Hyp].[meL].D.R.I.[am]}$$$$V2.0), for which the pEC50 is over 6.00.

With `CCCCCC[C@H](NC(=O)COCCOCCN)C(=O)N1CCC[C@H](C(=O)N[C@@H](Cc2ccccc2)C(=O)N[C@H](CC(C)C)C(=O)N[C@@H](CC(C)C)C(=O)N2C[C@H](O)C[C@H]2C(=O)N(C)[C@@H](CC(C)C)C(=O)N[C@@H](CC(=O)O)C(=O)N[C@@H](CCCNC(=N)N)C(=O)N[C@H](C(N)=O)[C@@H](C)CC)C1` [JAL-1808, H-Adx-Hgl-Sni-Phe-leu-Leu-Hyp-Nml-Asp-Arg-Ile-NH2] (H-[AEEA][Aoc(2)][X2]F[dL]L[Hyp][NMeL]DRI-NH2), the pEC50 is over 6.00.
